Read-outs that look alike come from different tables or passages of the source.

For data set [1], the system named is Staphylococcus aureus. Kind of data set: MIC by broth-dilution method (bactericidal effect), strain A. Type of data set: cell-based. To be noted: read-out: MIC value. The procedure:
(§1) The minimum inhibiting concentration (MIC) values of the above compounds and their two- or three-component combinations were determined in phenol-red - glucose broth (product of the Difco Co.) by using the broth-dilution method on the following bacterium strains isolated from chickens: […]

The test system of data set [2] is Escherichia coli 1. Kind of data set: MIC by broth-dilution method (bactericidal effect), strain B. The format is cell-based. The procedure:
as §1

For data set [3], the system named is Escherichia coli 2. Description: MIC by broth-dilution method (bactericidal effect), strain C. The format is cell-based. The procedure:
as §1

The test system of data set [4] is Salmonella typhimurium. Kind of data set: MIC by broth-dilution method (bactericidal effect), strain D. Particulars: Salmonella enterica, read-out: MIC value. Type of data set: cell-based. The procedure:
(§2) The minimum inhibiting concentration (MIC) values of the above compounds and their two- or three-component combinations were determined in phenol-red - glucose broth (product of the Difco Co.) by using the broth-dilution method on the following bacterium strains isolated from chickens:
(§3) D: Salmonella typhimurium

For data set [5], the system named is Pasteurella multocida. Kind of data set: MIC by broth-dilution method (bactericidal effect), strain E. The format is cell-based. To be noted: read-out: MIC value. The procedure: as §1
Data set [6] relates to Aspergillus fumigatus. Description: MIC by broth-dilution method (bactericidal effect), strain F. The format is cell-based. To be noted: read-out: MIC value. The procedure:
as §1

In data set [7] the test system is bacterium strains isolated from chickens. Description: in vitro bacterial growth inhibition over the bacterium strains tested. Type of data set: cell-based. To be noted: single compound. The procedure: as §2, §3
The conditions of data set [8]: in vivo.
For data set [9] the following is noted: in vivo; cited from earlier work.
The mark [10] stands for this setting: Escherichia coli, 1, read-out: MIC value.
Setting [11] is: Escherichia coli, 2, read-out: MIC value.
[12] abbreviates: strain A: Staphylococcus aureus, phenol-red - glucose broth, bactericidal effect.
Setting [13] is: strain B: Escherichia coli 1, phenol-red - glucose broth, bactericidal effect, read-out: MIC value.
The mark [14] stands for this setting: strain C: Escherichia coli 2, phenol-red - glucose broth, bactericidal effect, read-out: MIC value.
The mark [15] stands for this setting: strain D: Salmonella typhimurium, phenol-red - glucose broth, bactericidal effect.
Setting [16] is: strain E: Pasteurella multocida, phenol-red - glucose broth, bactericidal effect.
The mark [17] stands for this setting: strain F: Aspergillus fumigatus, phenol-red - glucose broth, bactericidal effect.

Consider `O=S(=O)(O)O.Oc1cccc2cccnc12` [8-Hydroxyquinoline sulfate, 8-hydroxyquinoline sulfate], for which the MIC – broadly, the lowest concentration found to suppress growth – in data set [1] (Staphylococcus aureus) worked out at 5 mg/L; in data set [2] (setting [10]) it was 25 mg/L; in data set [3] (setting [11]), 25 mg/L; in data set [4] (TYPHIMURIUM), 50 mg/L; in [5] (Pasteurella multocida) it was 1 mg/L; in data set [6] (Aspergillus fumigatus), 25 mg/L.

Take `Oc1cccc2cccnc12` [8-hydroxyquinoline]: the “dose necessary for the in vitro antibacterial effect” value (“dose necessary” for short) in data set [7] is listed as “a relatively low dose”. Moreover, the “required therapeutic blood level in the blood plasma” value in [8] is recorded as “cannot develop in the blood plasma”.

`COc1ccc(Cc2cnc(N)nc2N)cc1OC` [Diaveridine, 2,4-diamino-5-(3,4-dimethoxybenzyl)pyrimidine]: the minimum inhibitory concentration (MIC) came to 200 mg/L in [1] (Staphylococcus aureus); 200 mg/L in data set [2] (setting [10]); 150 mg/L in [3] (setting [11]); 200 mg/L in data set [4] (TYPHIMURIUM); 150 mg/L in data set [5] (Pasteurella multocida); 200 mg/L in [6] (Aspergillus fumigatus). In addition, the “dose necessary” value in [7] is listed as “a very high dose”.

`COc1cc(NS(=O)(=O)c2ccc(N)cc2)nc(OC)n1` [Sulfadimethoxine, 2,6-dimethoxy-4-sulfanilamidopyrimidine]: the MIC in [1] (setting [12]), in data set [2] (setting [13]), in data set [3] (setting [14]), in data set [4] (setting [15]), in [5] (setting [16]) and in data set [6] (setting [17]) was 200 mg/L each time. Also, the “toxicity compared with other sulfonamides” value in data set [9] is on record as “one of the least toxic ones”. In addition, in data set [9], the “toxicity; damage of haemopoietic organs and vessel walls” value is “no damages of the haemopoietic organs and vessel walls”.

Take `COc1cc(Cc2cnc(N)nc2N)cc(OC)c1OC` [Trimetoprim, 2,4-diamino-5-(3,4,5-trimethoxybenzyl)pyrimidine]: the minimal inhibitory concentration (MIC) came out at 200 mg/L in data set [1] (setting [12]); 200 mg/L in [2] (setting [13]); 200 mg/L in [3] (setting [14]); 200 mg/L in data set [4] (setting [15]); 100 mg/L in data set [5] (setting [16]); 200 mg/L in data set [6] (setting [17]). Also, in [7], the “dose necessary” value is “a very high dose”.

On to `Nc1ccc(S(=O)(=O)Nc2cnc3ccccc3n2)cc1` [sulfachinoxaline, N-(2-chinoxalinyl)sulfanilamide], for which the “toxicity; damage of haemopoietic organs and vessel walls” value in data set [9] was “the haemopoietic organs and vessel walls of the animals are significantly injured”.

Values taken from US4871722A, “Synergistic veterinary composition and/or fodder premix and process for preparing same” (priority 1987, dated 1989).
